The assay relates to rabbit aorta strips. Description: Vasoconstrictory effect in rabbit aorta strips at low depolarizing conditions (10 mM K+). It is filed as cell-based. The conditions noted are these: for pEC50: Oryctolagus cuniculus, rabbit aorta strips predepolarized with 10 mM K+. The procedure: The vasoconstrictory effects are measured at low depolarizing conditions in rabbit aorta strips. 10 mM K^+ is used to obtain a low starting concentration. Subsequently, increasing concentrations of the test compound are added in order to achieve an increase in contraction.
The EC50 (negative logarithm of the molar concentration required to increase the calcium induced contraction of low K^+ depolarized rabbit aorta by 50%) is analysed by interpolation of the corresponding concentration-response curves (table 4).

pEC50: −log10 of the molar value.

`COC(=O)C1=C(C)NC(C)=C([N+](=O)[O-])C1c1ccccc1C(F)(F)F` (stereo not drawn) [BayK-8644, 2,6-dimethyl-3-nitro-4-(2-trifluoromethylphenyl)-1,4-dihydropyridine-5-carboxylic acid methylester, reference compound] had a pEC50 of 7.89.

For `CC1=C(C(=O)OCN2C(=O)c3ccccc3S2(=O)=O)C(c2cccc([N+](=O)[O-])c2)C(C(=O)OC(C)(C)C)=C(C)N1` (stereo not drawn) [Example 53, 5-Tert.-butoxycarbonyl-2,6-dimethyl-4-(3-nitrophenyl)-1,4-dihydropyridine-3-carboxylic acid-N-(1,2-benzisothiazolyl-3(2H)one-1,1-dioxide)-methylester], the “vasoconstrictory properties (in words)” value is reported as “has vasoconstrictory properties” and the pEC50 was 8.03.

(Values after US5691361A, “1,4-dihydropyridine derivatives, a process for their preparation and their use for influencing the blood flow” (priority 1995, dated 1997).)
